Assay results as given in patent US11147272B2, “Pyridone compounds and agricultural and horticultural fungicides comprising the same as active ingredients” (MITSUI CHEMICALS AGRO, INC., priority 2017, dated 2021).

Legend:
Plasmopara viticola = test: Test Example G: Downy mildew on vine; settings: for Test G control value class: Downy mildew on vine (Neomuscat), 2.5 ml/pot, assessed 7 to 10 days after inoculation; for Test G control value: 7 to 10 days after inoculation
Magnaporthe grisea = test: whole plant or invertebrate; format: in vivo; settings: for Test A control value class: class of control value
Phytophthora infestans = test: whole plant or invertebrate; format: in vivo; settings: for Test F control value class: class of control value
[1] = tested on: Blumeria graminis f. sp. hordei; test: Test Example D: Powdery mildew on barley; settings: for Test D control value class: class of control value
[2] = tested on: Colletotrichum orbiculare; test: Test Example H: Anthracnose on cucumber; settings: for Test H control value class: Anthracnose on cucumber (Sagami Hanjiro), 2.5 ml/pot, assessed 6 to 10 days after inoculation; for Test H control value: 6 to 10 days after inoculation
Procedure: Seeds of a test plant (cucumber variety: Sagami Hanjiro) were planted and cultivated until the first leaf appeared. In the test, the inventive compounds were dissolved into dimethyl sulfoxide-methanol mixture solution (volume ratio: 9/1), and the resultant solutions were diluted with well water to a concentration of 250 ppm to obtain the drug solutions. The drug solutions were sprayed to the test plant (2.5 ml/pot). After the drug solutions dried, a conidial suspension (2-4×10^5 conidia/ml) of Colletotrichum orbiculare was inoculated to the plant by spraying. After the inoculation, the plant was kept in a mist chamber at room temperature of 20 to 23° C. for about 24 hours to promote the onset of disease. The degrees of disease development were investigated 6 to 10 days after the inoculation, and the effectiveness of the drug solutions was evaluated.
In Test Examples described above, the degrees of disease development were evaluated in increments of 0.05 from 0 (as no incidence of disease) to 3 (as the degree of disease development in an untreated plant group). Further, control values were calculated using the following equation based on the degree of disease development.
n=Degree of disease development in each treated group
In the table, H: more than 50% control value, L: 50% or less control value, and nt: not tested.

Puccinia recondita = test: Test Example E: Brown rust on wheat; format: in vivo
Botrytis cinerea = test: Test Example B: Gray mold on tomato; settings: for Test B control value class: class of control value
Alternaia brassicicola = test: Test Example C: Alternaria sooty spot on cabbage; format: in vivo
Text: Seeds of a test plant (cabbage variety: Shikidori) were planted and cultivated until the cotyledons extended.
<Control Value> Control value=100{1−(n/3)}

[3] = Brown rust on wheat, class of control value
[4] = Alternaria sooty spot on cabbage, class of control value
[5] = Downy mildew on vine, 250 ppm spray
[6] = Blast on rice, control value class
[7] = Late blight on tomato, control value class
[8] = Powdery mildew on barley, control value class
[9] = Anthracnose on cucumber, 250 ppm spray
[10] = Brown rust on wheat, control value class
[11] = Gray mold on tomato, control value class
[12] = Alternaria sooty spot on cabbage, control value class
[13] = 250 ppm drug solution sprayed (2.5 ml/pot), grape Neomuscat
[14] = 250 ppm drug solution sprayed on test plant
[15] = 250 ppm drug solution sprayed (2.5 ml/pot), cucumber Sagami Hanjiro

Compound	Test G control value (Plasmopara viticola; [5])	Test A control value (Magnaporthe grisea; [6])	Test F control value (Phytophthora infestans; [7])	Test D control value [1, 8]	Test H control value [2, 9]	Test E control value (Puccinia recondita; [10])	Test B control value (Botrytis cinerea; [11])	Test C control value (Alternaia brassicicola; [12])	further results
CCn1c(-c2c(F)cc(OC)cc2F)c(C(C)(O)CC(C)C)cc(Cl)c1=O (centres unmarked) [compound 153]									Test G control value class (Plasmopara viticola; 250 ppm spray): H (more than 50% control value); Test A control value class (Magnaporthe grisea; Blast on rice): L (50% or less control value); Test F control value class (Phytophthora infestans; Late blight on tomato): L (50% or less control value); Test D control value class ([1]; Powdery mildew on barley): H (more than 50% control value); Test H control value class ([2]; 250 ppm spray): H (more than 50% control value); Test E control value class (Puccinia recondita; [3]): H (more than 50% control value); Test B control value class (Botrytis cinerea; Gray mold on tomato): H (more than 50% control value); Test C control value class (Alternaia brassicicola; [4]): H (more than 50% control value)
C#CC(F)c1cc(Cl)c(=O)n(CC)c1-c1c(F)cc(F)cc1F (centres unmarked) [compound 286]	L (50% or less control value)	L (50% or less control value)	L (50% or less control value)	L (50% or less control value)	H (more than 50% control value)	H (more than 50% control value)	H (more than 50% control value)	H (more than 50% control value)	
CCn1c(-c2c(F)cc(F)cc2F)c(C=O)ccc1=O [compound 449]									Test G control value (Plasmopara viticola; [13]): L (50% or less control value); Test A control value (Magnaporthe grisea; [14]): L (50% or less control value); Test F control value (Phytophthora infestans; [14]): L (50% or less control value); Test D control value [1, 14]: L (50% or less control value); Test H control value [2, 15]: L (50% or less control value); Test E control value (Puccinia recondita; [14]): L (50% or less control value); Test B control value (Botrytis cinerea; [14]): H (more than 50% control value); Test C control value (Alternaia brassicicola; [14]): L (50% or less control value)
CCc1cc(Cl)c(=O)n(CC)c1-c1ccc(F)cc1Cl [compound 189]	H (more than 50% control value)	H (more than 50% control value)	L (50% or less control value)	H (more than 50% control value)	H (more than 50% control value)	H (more than 50% control value)	H (more than 50% control value)	H (more than 50% control value)	
CCn1c(-c2c(F)cc(OC)cc2F)c(C(C)C)cc(Cl)c1=O [Compound No. 11, 3-Chloro-6-(2,6-difluoro-4-methoxyphenyl)-1-ethyl-5-isopropylpyridin-2(1H)-one]									pest or weed control at 250 ppm (Plasmopara viticola; Plasmopara viticola, topical, read-out: Test G control value class): < 50%; pest or weed control at 250 µg/mL (Magnaporthe grisea; Pyricularia oryzae, in Oryza sativa, read-out: Test A control value class): > 50%; pest or weed control at 250 µg/mL (Phytophthora infestans; Phytophthora infestans, in Solanum lycopersicum, topical, read-out: Test F control value class): < 50%; pest or weed control at 250 µg/mL ([1]; Blumeria graminis, in Hordeum vulgare, topical, read-out: Test D control value class): > 50%; pest or weed control at 250 ppm ([2]; Colletotrichum orbiculare, in Cucumis sativus, topical, read-out: Test H control value class): > 50%; pest or weed control at 250 µg/mL (Puccinia recondita; Puccinia recondita, topical, Brown rust on wheat, class of control value, read-out: Test E control value class): > 50%; pest or weed control at 250 µg/mL (Botrytis cinerea; Botrytis cinerea, in Solanum lycopersicum, topical, read-out: Test B control value class): > 50%; pest or weed control at 250 µg/mL (Alternaia brassicicola; Brassica oleracea, topical, Alternaria sooty spot on cabbage, class of control value, read-out: Test C control value class): > 50%
CCn1c(-c2ccc(O)cc2)c(CC(C)C)ccc1=O [compound 193]	L (50% or less control value)	L (50% or less control value)	L (50% or less control value)	L (50% or less control value)	L (50% or less control value)	L (50% or less control value)	L (50% or less control value)	H (more than 50% control value)	
CCn1c(-c2ccc(Br)cc2Cl)c(CC(C)C)ccc1=O [compound 225]	L (50% or less control value)	L (50% or less control value)	L (50% or less control value)	H (more than 50% control value)	L (50% or less control value)	H (more than 50% control value)	H (more than 50% control value)	H (more than 50% control value)	
CCc1cc(Cl)c(=O)n(C)c1-c1ccc(F)cc1C [compound 362]	L (50% or less control value)	H (more than 50% control value)	L (50% or less control value)	H (more than 50% control value)	L (50% or less control value)	H (more than 50% control value)	H (more than 50% control value)	L (50% or less control value)	
CCc1cc(F)ccc1-c1c(CC(C)C)cc(Cl)c(=O)n1CC [compound 263]	H (more than 50% control value)	H (more than 50% control value)	L (50% or less control value)	H (more than 50% control value)	H (more than 50% control value)	H (more than 50% control value)	H (more than 50% control value)	H (more than 50% control value)	
C#CCOc1cc(F)c(-c2c(CCC)cc(Br)c(=O)n2CC)c(F)c1 [compound 464]									Test G control value (Plasmopara viticola; [13]): L (50% or less control value); Test A control value (Magnaporthe grisea; [14]): L (50% or less control value); Test F control value (Phytophthora infestans; [14]): L (50% or less control value); Test D control value [1, 14]: H (more than 50% control value); Test H control value [2, 15]: H (more than 50% control value); Test E control value (Puccinia recondita; [14]): H (more than 50% control value); Test B control value (Botrytis cinerea; [14]): H (more than 50% control value); Test C control value (Alternaia brassicicola; [14]): H (more than 50% control value)
CC(C)Cc1cc(Cl)c(=O)n(C)c1-c1ccc(Cl)cc1Cl [compound 137]									Test G control value class (Plasmopara viticola; 250 ppm spray): H (more than 50% control value); Test A control value class (Magnaporthe grisea; Blast on rice): H (more than 50% control value); Test F control value class (Phytophthora infestans; Late blight on tomato): L (50% or less control value); Test D control value class ([1]; Powdery mildew on barley): H (more than 50% control value); Test H control value class ([2]; 250 ppm spray): H (more than 50% control value); Test E control value class (Puccinia recondita; [3]): H (more than 50% control value); Test B control value class (Botrytis cinerea; Gray mold on tomato): H (more than 50% control value); Test C control value class (Alternaia brassicicola; [4]): H (more than 50% control value)
CCOC(C)(c1cc(Cl)c(=O)n(CC)c1-c1ccc(C#N)cc1)C(C)C (centres unmarked) [compound 251]	L (50% or less control value)	L (50% or less control value)	L (50% or less control value)	L (50% or less control value)	L (50% or less control value)	L (50% or less control value)	L (50% or less control value)	H (more than 50% control value)	
CCCc1cc(Cl)c(=O)n(CC)c1-c1c(F)cc(OCC)cc1F [compound 457]									Test G control value (Plasmopara viticola; [13]): L (50% or less control value); Test A control value (Magnaporthe grisea; [14]): H (more than 50% control value); Test F control value (Phytophthora infestans; [14]): L (50% or less control value); Test D control value [1, 14]: H (more than 50% control value); Test H control value [2, 15]: H (more than 50% control value); Test E control value (Puccinia recondita; [14]): H (more than 50% control value); Test B control value (Botrytis cinerea; [14]): H (more than 50% control value); Test C control value (Alternaia brassicicola; [14]): H (more than 50% control value)
